Activity calls are given as the source filed them. The rule behind the calls is not given here.
Columns and labels:
Fusarium solani [1] = assay: Compound was tested for the antifungal activity against Fusarium solani (R-2800) at a concentration of 0.1 ug/disk; zone of inhibition was measured after 48 hr incubation; NE denotes not effective; assay type: functional, organism-based
Candida albicans [2] = assay: Compound was tested for the antifungal activity against Candida albicans (IFO1594) at a concentration of 1 ug/disk; zone of inhibition was measured after 48 h incubation; incomplete inhibition observed; assay type: functional
Penicillium citrinum [3] = assay: Compound was tested for the antifungal activity against Penicillium citrinum (R-3703) at a concentration of 0.1 ug/disk; zone of inhibition was measured after 48 hr incubation; +/- denotes slightly effective; assay type: functional, organism-based
Candida albicans [4] = assay: Compound was tested for the antifungal activity against Candida albicans (IFO1594) at a concentration of 0.1 ug/disk; zone of inhibition was measured after 48 hr incubation; +/- denotes slightly effective; assay type: functional, organism-based
Candida albicans [5] = assay: Compound was tested for the antifungal activity against Candida albicans (IFO1594) at a concentration of 10 ug/disk; zone of inhibition was measured after 48 hr incubation; incomplete inhibition observed; assay type: functional
Fusarium solani [6] = assay: Compound was tested for the antifungal activity against Fusarium solani (R-2800) at a concentration of 10 ug/disk; zone of inhibition was measured after 48 hr incubation; NE denotes not effective; assay type: functional, organism-based
Saccharomyces cerevisiae [7] = assay: Compound was tested for the antifungal activity against Saccharomyces cerevisiae (IAM4861) at a concentration of 1 ug/disk; zone of inhibition was measured after 48 hr incubation; incomplete inhibition observed; assay type: functional
Saccharomyces cerevisiae [8] = assay: Compound was tested for the antifungal activity against Saccharomyces cerevisiae (IAM4861) at a concentration of 10 ug/disk; zone of inhibition was measured after 48 hr incubation; incomplete inhibition observed; assay type: functional
Aspergillus fumigatus [9] = assay: Compound was tested for the antifungal activity against Aspergillus fumigatus (R-1301) at a concentration of 10 ug/disk; zone of inhibition was measured after 48 hr incubation.; assay type: functional
Saccharomyces cerevisiae [10] = assay: Compound was tested for the antifungal activity against Saccharomyces cerevisiae (IAM4861) at a concentration of 0.1 ug/disk; zone of inhibition was measured after 48 hr incubation; incomplete inhibition observed; assay type: functional
Fusarium solani [11] = assay: Compound was tested for the antifungal activity against Fusarium solani (R-2800) at a concentration of 1 ug/disk; zone of inhibition was measured after 48 hr incubation; NE denotes not effective; assay type: functional, organism-based
Aspergillus fumigatus [12] = assay: Compound was tested for the antifungal activity against Aspergillus fumigatus (R-1301) at a concentration of 1 ug/disk; zone of inhibition was measured after 48 hr incubation; +/- denotes slightly effective; assay type: functional, organism-based
Aspergillus fumigatus [13] = assay: Compound was tested for the antifungal activity against Aspergillus fumigatus (R-1301) at a concentration of 0.1 ug/disk; zone of inhibition was measured after 48 hr incubation; NE denotes not effective; assay type: functional, organism-based
Penicillium citrinum [14] = assay: Compound was tested for the antifungal activity against Penicillium citrinum (R-3703) at a concentration of 1 ug/disk; zone of inhibition was measured after 48 hr incubation.; assay type: functional
MRC5 [15] = assay: Cytotoxicity against human diploid embryotic cell line (MRC-5); assay type: functional, cell-based
Penicillium citrinum [16] = assay: Compound was tested for the antifungal activity against Penicillium citrinum (R-3703) at a concentration of 10 ug/disk; zone of inhibition was measured after 48 h incubation.; assay type: functional
Aspergillus fumigatus [17] = assay: Compound was tested for the antifungal activity against Aspergillus fumigatus (R-1301) at a concentration of 1 ug/disk; zone of inhibition was measured after 48 hr incubation.; assay type: functional
Aspergillus fumigatus [18] = assay: Compound was tested for the antifungal activity against Aspergillus fumigatus (R-1301) at a concentration of 0.1 ug/disk; zone of inhibition was measured after 48 hr incubation.; assay type: functional
Penicillium citrinum [19] = assay: Compound was tested for the antifungal activity against Penicillium citrinum (R-3703) at a concentration of 0.1 ug/disk; zone of inhibition was measured after 48 hr incubation.; assay type: functional
Saccharomyces cerevisiae [20] = assay: Compound was tested for the antifungal activity against Saccharomyces cerevisiae (IAM4861) at a concentration of 10 ug/disk; zone of inhibition was measured after 48 hr incubation.; assay type: functional
Candida albicans [21] = assay: Compound was tested for the antifungal activity against Candida albicans (IFO1594) at a concentration of 10 ug/disk; zone of inhibition was measured after 48 hr incubation.; assay type: functional
Fusarium solani [22] = assay: Compound was tested for the antifungal activity against Fusarium solani (R-2800) at a concentration of 1 ug/disk; zone of inhibition was measured after 48 hr incubation; incomplete inhibition observed; assay type: functional
Saccharomyces cerevisiae [23] = assay: Compound was tested for the antifungal activity against Saccharomyces cerevisiae (IAM4861) at a concentration of 1 ug/disk; zone of inhibition was measured after 48 hr incubation.; assay type: functional
Fusarium solani [24] = assay: Compound was tested for the antifungal activity against Fusarium solani (R-2800) at a concentration of 10 ug/disk; zone of inhibition was measured after 48 hr incubation; incomplete inhibition observed; assay type: functional
Candida albicans [25] = assay: Compound was tested for the antifungal activity against Candida albicans (IFO1594) at a concentration of 1 ug/disk; zone of inhibition was measured after 48 hr incubation.; assay type: functional
Saccharomyces cerevisiae [26] = assay: Compound was tested for the antifungal activity against Saccharomyces cerevisiae (IAM4861) at a concentration of 0.1 ug/disk; zone of inhibition was measured after 48 hr incubation.; assay type: functional
Aspergillus fumigatus [27] = assay: Compound was tested for the antifungal activity against Aspergillus fumigatus (R-1301) at a concentration of 0.1 ug/disk; zone of inhibition was measured after 48 hr incubation; +/- denotes slightly effective; assay type: functional, organism-based
MRC5 [28] = assay: Cytotoxicity against the human diploid embryotic cell line (MRC-5); assay type: functional, cell-based
Candida albicans [29] = assay: Compound was tested for the antifungal activity against Candida albicans (IFO1594) at a concentration of 0.1 ug/disk; zone of inhibition was measured after 48 h incubation; NE denotes not effective; assay type: functional, organism-based
Saccharomyces cerevisiae [30] = assay: Compound was tested for the antifungal activity against Saccharomyces cerevisiae (IAM4861) at a concentration of 0.1 ug/disk; zone of inhibition was measured after 48 hr incubation; +/- denotes slightly effective; assay type: functional, organism-based
Penicillium citrinum [31] = assay: Compound was tested for the antifungal activity against Penicillium citrinum (R-3703) at a concentration of 10 ug/disk; the diameter of each inhibition zone was measured after 48 hr incubation; NE denotes not effective; assay type: functional, organism-based
Penicillium citrinum [32] = assay: Compound was tested for the antifungal activity against Penicillium citrinum (R-3703) at a concentration of 1 ug/disk; zone of inhibition was measured after 48 hr incubation; NE denotes not effective; assay type: functional, organism-based
Penicillium citrinum [33] = assay: Compound was tested for the antifungal activity against Penicillium citrinum (R-3703) at a concentration of 0.1 ug/disk; zone of inhibition was measured after 48 hr incubation; NE denotes not effective; assay type: functional, organism-based

| Molecule | Diameter of inhibition zone (Fusarium solani [1]) | Diameter of inhibition zone (Candida albicans [2]) [mm] | Diameter of inhibition zone (Penicillium citrinum [3]) | Diameter of inhibition zone (Candida albicans [4]) | Diameter of inhibition zone (Candida albicans [5]) [mm] | Diameter of inhibition zone (Fusarium solani [6]) | Diameter of inhibition zone (Saccharomyces cerevisiae [7]) [mm] | Diameter of inhibition zone (Saccharomyces cerevisiae [8]) [mm] | Diameter of inhibition zone (Aspergillus fumigatus [9]) [mm] | Diameter of inhibition zone (Saccharomyces cerevisiae [10]) [mm] | Diameter of inhibition zone (Fusarium solani [11]) | Diameter of inhibition zone (Aspergillus fumigatus [13]) | Diameter of inhibition zone (Penicillium citrinum [14]) [mm] | IC50 (MRC5 [15]; Homo sapiens, MRC5) [µM] | Diameter of inhibition zone (Penicillium citrinum [16]) [mm] | Diameter of inhibition zone (Aspergillus fumigatus [17]) [mm] | Diameter of inhibition zone (Penicillium citrinum [19]) [mm] | Diameter of inhibition zone (Saccharomyces cerevisiae [20]) [mm] | Diameter of inhibition zone (Candida albicans [21]) [mm] | also measured |
| --- | --- | --- | --- | --- | --- | --- | --- | --- | --- | --- | --- | --- | --- | --- | --- | --- | --- | --- | --- | --- |
| CO\C=C(C(=O)OC)/C(C)=C(\C=C\c1ccc2c(c1)OCO2)OC | inactive | 22 | Weak activity | Weak activity | 32 | inactive | 36 | 42 | 22 | 8 | inactive | inactive | 10 | > 100 | 18 | – | – | – | – | Diameter of inhibition zone (Aspergillus fumigatus [12]): Weak activity |
| CO\C=C(C(=O)OC)/C(C)=C(\C=C\c1ccc(OC)c(OC)c1)OC | inactive | 26 | Weak activity | Weak activity | 34 | inactive | 38 | 43 | 20 | 20 | inactive | inactive | 13 | 12 | 22 | – | – | – | – | Diameter of inhibition zone (Aspergillus fumigatus [12]): Weak activity |
| CO\C=C(C(=O)OC)/C(C)=C(\C=C\c1ccc(OC)cc1)OC | inactive | 27 | – | Weak activity | 33 | inactive | 36 | 42 | 29 | 28 | inactive | – | 23 | 35 | 29 | 18 | 9 | – | – | Diameter of inhibition zone (Aspergillus fumigatus [18]): 4 mm |
| CO\C=C(C(=O)OC)/C(C)=C(\C=C\c1cccc(OC)c1)OC | inactive | 27 | – | Weak activity | 32 | inactive | 29 | 35 | 23 | 16 | inactive | inactive | 19 | 27 | 25 | 9 | 8 | – | – | – |
| NYSTATIN [listing 1 of 2 here] | – | – | – | – | – | inactive | – | – | 14 | – | – | – | – | – | 12 | – | – | 18 | 16 | – |
| CO\C=C(C(=O)OC)/C(C)=C(\C=C\c1ccc2ccccc2c1)OC | inactive | – | Weak activity | Weak activity | – | – | – | – | 18 | – | – | – | 14 | > 100 | 19 | 13 | – | 37 | 26 | Diameter of inhibition zone (Fusarium solani [22]): 14 mm; Diameter of inhibition zone (Saccharomyces cerevisiae [23]): 30 mm; Diameter of inhibition zone (Fusarium solani [24]): 13 mm; Diameter of inhibition zone (Aspergillus fumigatus [18]): 4 mm; Diameter of inhibition zone (Candida albicans [25]): 16 mm; Diameter of inhibition zone (Saccharomyces cerevisiae [26]): 12 mm |
| CO\C=C(C(=O)OC)/C(C)=C(\C=C\c1ccccc1)OC [9-METHOXYSTROBILURIN A] | inactive | 28 | – | incomplete inhibition | 36 | inactive | 40 | 49 | 31 | 17 | inactive | – | 18 | – | 28 | 15 | 4 | – | – | Diameter of inhibition zone (Aspergillus fumigatus [27]): slightly effective; IC50 (MRC5 [28]): 34 µM |
| NYSTATIN [listing 2 of 2 here] | – | – | – | – | – | – | – | – | – | – | – | – | – | – | – | – | – | – | – | IC50 (MRC5 [15]; mrc5): 34 µM |
| C=CC(C)(C)O[C@H]1COc2ccc(/C=C/C(OC)=C(C)\C(=C/OC)C(=O)OC)cc2OC1(C)C | inactive | – | – | – | – | – | – | – | 10 | – | – | – | – | 0.36 | – | 8 | – | 25 | 22 | Diameter of inhibition zone (Fusarium solani [22]): 19 mm; Diameter of inhibition zone (Saccharomyces cerevisiae [23]): 20 mm; Diameter of inhibition zone (Candida albicans [29]): inactive; Diameter of inhibition zone (Saccharomyces cerevisiae [30]): Weak activity; Diameter of inhibition zone (Fusarium solani [24]): 25 mm; Diameter of inhibition zone (Aspergillus fumigatus [27]): Weak activity; Diameter of inhibition zone (Candida albicans [25]): 17 mm; Diameter of inhibition zone (Penicillium citrinum [31]): inactive; Diameter of inhibition zone (Penicillium citrinum [32]): inactive; Diameter of inhibition zone (Penicillium citrinum [33]): inactive |

Source: ChEMBL document CHEMBL1136032, “Remarkable influence of the aromatic substructure in 9-methoxystrobilurin derivatives on their antifungal activity” (Bioorg Med Chem Lett, 2002)
